The first assay concerns HBV rcDNA in HepDE19 cells. The assay can be described thus: HepDE19 assay with bDNA quantitation of HBV rcDNA. The format is cell-based, hepatitis B virus. The settings on record: HepDE19 cells, 7 day incubation, rcDNA measured by Quantigene 2.0 bDNA assay; top concentration 25 µM; read-out: DE-19bDNA EC50. Here is the method: HepDE19 Assay With bDNA Quantitation of HBV rcDNA
HepDE19 (50,000 cells/well) were plated in 96-well collagen-coated tissue-culture treated microtiter plates in DMEM/F12 medium supplemented with 10% fetal bovine serum, 1% penicillin-streptomycin and 1 µg/mL tetracycline and incubated in a humidified incubator at 37° C. and 5% CO2 overnight. Next day, the cells were switched to fresh medium without tetracycline and incubated for 4 hours at 37° C. and 5% CO2. […] The final DMSO concentration in the assay was 0.5%. The plates were incubated for 7 days in a humidified incubator at 37° C. and 5% CO2. Following a 7 day-incubation, the level of rcDNA present in the inhibitor-treated wells was measured using a Quantigene 2.0 bDNA assay kit (Affymetrix, Santa Clara, CA) with HBV specific custom probe set and manufacturers instructions. Concurrently, the effect of compounds on cell viability was assessed using replicate plates, plated at a density of 5,000 cells/well and incubated for 4 days, to determine the ATP content as a measure of cell viability using the cell-titer glo reagent (CTG; Promega Corporation, Madison, WI) as per manufacturer’s instructions.
Representative compounds of the disclosure were tested for their abilities to inhibit formation of relaxed circular DNA (rcDNA) in a HepDE19 assay, as described elsewhere herein.
As a reminder, the EC50 is the concentration giving half of the maximal effect. `CC(c1n[nH]c(=O)c2cc(F)c(F)cc12)N(C)C(=O)c1cc(F)c(Cl)c(F)c1` (single isomer, unassigned) [Compound 95, 4-chloro-N-(1-(6,7-difluoro-4-oxo-3,4-dihydrophthalazin-1-yl)ethyl)-3,5-difluoro-N-methylbenzamide]: the EC50 turned out to be 80 nM.

`CC(c1n[nH]c(=O)c2cc(F)c(F)cc12)N(C)C(=O)c1cc2c(C(F)F)cc(F)cc2[nH]1` (single isomer, unassigned) [Compound 96, N-(1-(6,7-difluoro-4-oxo-3,4-dihydrophthalazin-1-yl)ethyl)-4-(difluoromethyl)-6-fluoro-N-methyl-1H-indole-2-carboxamide]: the 50% effective concentration (EC50) amounted to 2520 nM.

Consider `CC(c1n[nH]c(=O)c2cc(F)c(F)cc12)N(C)C(=O)c1ccc2ncsc2c1` (single isomer, unassigned) [Compound 86, N-(1-(6,7-difluoro-4-oxo-3,4-dihydrophthalazin-l-yl)ethyl)-N-methylbenzo[d]thiazole-6-carboxamide], for which the EC50 was ≥ 25000 nM.

With `CC(c1n[nH]c(=O)c2cc(F)c(F)cc12)N(C)C(=O)c1cc2c(C(F)F)cccn2c1` (single isomer, unassigned) [Compound 98, N-(1-(6,7-difluoro-4-oxo-3,4-dihydrophthalazin-1-yl)ethyl)-8-(difluoromethyl)-N-methylindolizine-2-carboxamide], the EC50 turned out to be 7440 nM.

For the compound `CC(c1n[nH]c(=O)c2cc(F)c(F)cc12)N(C)C(=O)c1ccc2ncoc2c1` (single isomer, unassigned) [Compound 90, N-(1-(6,7-difluoro-4-oxo-3,4-dihydrophthalazin-1-yl)ethyl)-N-methylbenzo[d]oxazole-6-carboxamide], the EC50 was > 25000 nM.

As to `CC(c1n[nH]c(=O)c2cc(F)c(F)cc12)N(C)C(=O)c1ccc2cn[nH]c2c1` (single isomer, unassigned) [Compound 112, N-(1-(6,7-difluoro-4-oxo-3,4-dihydrophthalazin-1-yl)ethyl)-N-methyl-1H-indazole-6-carboxamide], the EC50 is > 25000 nM.

With `CC(c1n[nH]c(=O)c2cc(F)c(F)cc12)N(C)C(=O)c1cc2c(C(F)F)cc(F)cc2[nH]1` (single isomer, unassigned) [Compound 97, N-(1-(6,7-difluoro-4-oxo-3,4-dihydrophthalazin-1-yl)ethyl)-4-(difluoromethyl)-6-fluoro-N-methyl-1H-indole-2-carboxamide], the concentration for a half-maximal effect (EC50) turned out to be 20 nM.

Consider `CC(c1n[nH]c(=O)c2cc(F)c(F)cc12)N(C)C(=O)c1ccc2ocnc2c1` (single isomer, unassigned) [Compound 88, N-(1-(6,7-difluoro-4-oxo-3,4-dihydrophthalazin-1-yl)ethyl)-N-methylbenzo[d]oxazole-5-carboxamide], for which the 50% effective concentration (EC50) was > 25000 nM.

`CC(c1n[nH]c(=O)c2cc(F)c(F)cc12)N(C)C(=O)c1ccc2c(c1)CCC2` (single isomer, unassigned) [Compound 82, N-(1-(6,7-difluoro-4-oxo-3,4-dihydrophthalazin-1-yl)ethyl)-N-methyl-2,3-dihydro-1H-indene-5-carboxamide]: the concentration for a half-maximal effect (EC50) was 9010 nM.

Take `CC(C)CN(C(=O)Nc1ccc(F)c(Cl)c1)C(C)c1n[nH]c(=O)c2ccccc12` (single isomer, unassigned) [Compound 5, 3-(3-chloro-4-fluoro-phenyl)-1-isobutyl-1-[1-(4-oxo-3H-phthalazin-1-yl)ethyl]urea]: the EC50 was found to be 10 nM.

Still in this assay, the particulars now being: Hepatitis B virus, HepDE19, 168 h, HepDE19 cells, 7 day incubation, rcDNA measured by Quantigene 2.0 bDNA assay; top concentration 25 µM; read-out: DE-19bDNA EC50.
With `CC(c1n[nH]c(=O)c2cc(Cl)ccc12)N(CCCO)C(=O)Nc1ccc(F)c(Cl)c1` (racemic) [Compound 13, 3-(3-chloro-4-fluorophenyl)-1-(1-(6-chloro-4-oxo-3,4-dihydrophthalazin-1-yl)ethyl)-1-(3-hydroxypropyl)urea], the concentration for a half-maximal effect (EC50) came out at 22 nM.

As to `CC(C)CN(C(=O)c1cc2ccccc2[nH]1)C(C)c1n[nH]c(=O)c2cc(F)c(F)cc12` (racemic) [Compound 56, N-(1-(6,7-difluoro-4-oxo-3,4-dihydrophthalazin-l-yl)ethyl)-N-isobutyl-1H-indole-2-carboxamide], the EC50 was determined as 390 nM.

Turning to `CC(c1n[nH]c(=O)c2cc(F)c(F)cc12)N(C)C(=O)c1ccc(Br)cc1` (racemic) [Compound 65, 4-bromo-N-(1-(6,7-difluoro-4-oxo-3,4-dihydrophthalazin-1-yl)ethyl)-N-methylbenzamide], the EC50 turned out to be 60 nM.

Regarding `CC(c1n[nH]c(=O)c2cc(F)c(F)cc12)N(C)C(=O)c1cnc(C(F)(F)F)c(F)c1` (racemic) [Compound 114, N-(1-(6,7-difluoro-4-oxo-3,4-dihydrophthalazin-1-yl)ethyl)-5-fluoro-N-methyl-6-(trifluoromethyl)nicotinamide], the EC50 amounted to 4180 nM.

Take `CC(c1n[nH]c(=O)c2cc(F)c(F)cc12)N(C)C(=O)c1cc2c(F)c(F)ccc2[nH]1` (racemic) [Compound 54, N-(1-(6,7-difluoro-4-oxo-3,4-dihydrophthalazin-1-yl)ethyl)-4,5-difluoro-N-methyl-1H-indole-2-carboxamide]: the EC50 turned out to be 24 nM.

On to `CC(c1n[nH]c(=O)c2cc(F)c(F)cc12)N(C)C(=O)c1cc2c(F)cccn2c1` (racemic) [Compound 77, N-(1-(6,7-difluoro-4-oxo-3,4-dihydrophthalazin-1-yl)ethyl)-8-fluoro-N-methylindolizine-2-carboxamide], for which the concentration for a half-maximal effect (EC50) is 8380 nM.

With `CC(c1n[nH]c(=O)c2cc(F)c(F)cc12)N(C)C(=O)[C@@H]1Cc2ccccc2N1` (stereo partly drawn) [Compound 78, (2S)-N-(1-(6,7-difluoro-4-oxo-3,4-dihydrophthalazin-1-yl)ethyl)-N-methylindoline-2-carboxamide], the half-maximal effective concentration (EC50) came out at 3640 nM.

For the compound `CC(c1n[nH]c(=O)c2cc(F)c(F)cc12)N(C)C(=O)c1ccc(Cl)c(F)c1` (racemic) [Compound 64, 4-chloro-N-(1-(6,7-difluoro-4-oxo-3,4-dihydrophthalazin-1-yl)ethyl)-3-fluoro-N-methylbenzamide], the concentration giving a half-maximal response (EC50) is 140 nM.

Staying with this assay, now noted: Hepatitis B virus, HepDE19, 168 h, read-out: DE-19bDNA EC50.
Consider `C[C@H](c1n[nH]c(=O)c2cc(F)c(F)cc12)N(C)C(=O)c1cc2ccccc2[nH]1` [Compound 46, (R)-N-(1-(6,7-difluoro-4-oxo-3,4-dihydrophthalazin-1-yl)ethyl)-N-methyl-1H-indole-2-carboxamide], for which the EC50 amounted to 32 nM.

As to `CC(C)CN(C(=O)Nc1ccccc1)C(C)c1n[nH]c(=O)c2cc(F)c(F)cc12` (single isomer, unassigned) [Compound 39, 1-(1-(6,7-difluoro-4-oxo-3,4-dihydrophthalazin-1-yl)ethyl)-1-isobutyl-3-phenylurea], the EC50 stood at 3700 nM.

With `C[C@H](c1n[nH]c(=O)c2cc(F)c(F)cc12)N(C)C(=O)Nc1cc(F)c(F)c(F)c1` [Compound 42, (R)(1-(6,7-difluoro-4-oxo-3,4-dihydrophthalazinyl)ethyl)methyl-3-(3,4,5-trifluorophenyl)urea], the EC50 worked out at 25 nM.

In the case of `CC(C)CN(C(=O)Nc1ccccc1)C(C)c1nn(C)c(=O)c2cc(F)c(F)cc12` (racemic) [Compound 34, 1-(1-(6,7-difluoro-3-methyl-4-oxo-3,4-dihydrophthalazin-1-yl)ethyl)-1-isobutyl-3-phenylurea], the EC50 worked out at 10 nM.

With `CCN(C(=O)c1cc2cc(F)ccc2[nH]1)C(C)c1n[nH]c(=O)c2cc(F)c(F)cc12` (racemic) [Compound 47, N-(1-(6,7-difluoro-4-oxo-3,4-dihydrophthalazin-1-yl)ethyl)-N-ethyl-5-fluoro-1H-indole-2-carboxamide], the concentration giving a half-maximal response (EC50) turned out to be 41 nM.

In the case of `CC(c1n[nH]c(=O)c2cc(F)c(F)cc12)N(C)C(=O)c1cc2cc(F)ccc2[nH]1` (racemic) [Compound 51, N-(1-(6,7-difluoro-4-oxo-3,4-dihydrophthalazin-1-yl)ethyl)-5-fluoro-N-methyl-1H-indole-2-carboxamide], the EC50 turned out to be 39 nM.

For `CC(c1n[nH]c(=O)c2cc(F)c(F)cc12)N(C)C(=O)c1cc2ccccn2c1` (racemic) [Compound 59, N-(1-(6,7-difluoro-4-oxo-3,4-dihydrophthalazin-1-yl)ethyl)-N-methylindolizine-2-carboxamide], the EC50 came out at 130 nM.

As to `C[C@@H](c1nn(C)c(=O)c2cc(F)c(F)cc12)N(C)C(=O)Nc1ccc(F)c(Cl)c1` [Compound 37, (S)-3-(3-chloro-4-fluorophenyl)-1-(1-(6,7-difluoro-3-methyl-4-oxo-3,4-dihydrophthalazin-1-yl)ethyl)-1-methylurea], the EC50 worked out at 2300 nM.

On to `C[C@H](c1n[nH]c(=O)c2cc(F)c(F)cc12)N(C)C(=O)c1cc2sc(Cl)cc2[nH]1` [Compound 79, (R)-2-chloro-N-(1-(6,7-difluoro-4-oxo-3,4-dihydrophthalazin-1-yl)ethyl)-N-methyl-4H-thieno[3,2-b]pyrrole-5-carboxamide], for which the EC50 came out at 30 nM.

`C[C@H](c1nn(C)c(=O)c2cc(F)c(F)cc12)N(C)C(=O)Nc1ccc(F)c(Cl)c1` [Compound 36, (R)-3-(3-chloro-4-fluorophenyl)-1-[1-(6,7-difluoro-3-methyl-4-oxo-phthalazin-1-yl)ethyl]-1-methyl-urea]: the concentration giving a half-maximal response (EC50) was found to be 13 nM.
